Data set [1] is described as follows: comparative tests on intrinsic dissolution. The following applies: Acetonitrile/H2O (60/40), 500 ml, 37° C., 75 revolutions/minute, pellets 0.5 cm^2, UV at 246 nm. Type of data set: physicochemical. The procedure: A. Tests for evaluating the rate of intrinsic dissolution are carried out with the amorphous rimonabant obtained in Example 9 and the rimonabant in its crystalline form.
These tests are carried out under the following conditions: • Solution: Acetonitrile/H2O (60/40) • Volume: 500 ml • Temperature: 37° C. • Rotation speed: 75 revolutions/minute • Surface area of the pellets: 0.5 cm^2 • Compressive force on the pellets: 2 tonnes, 20 seconds • Assay method: UV at 246 nm • Equipment: Vankel “VK700”-Kontron “Uvikon 941+”
B. Tests are carried out with the amorphous surinabant obtained in Example 10 and the surinabant in its crystalline form. The test conditions are identical to those of the comparative tests carried out for rimonabant (see preceding section A).

Data set [2] is described as follows: stability under stressing conditions (100° C., X-ray powder diffractometry). The data set is classed as physicochemical. The following applies: same stressing conditions. The procedure: The apparatus used is a Bragg-Brentano-type DT 500 diffractometer from Siemens®. The line used is Kα1 of copper obtained at an accelerating voltage of 30 mA-40 kV. The diffractograms are recorded for angles of between 2° and 40° at the rate of 1°.min^−1 in Bragg 2-theta.
The physicochemical stability of the solid solution of powder obtained is determined at 100° C. without a controlled atmosphere, for 52 days. Several samples are placed in an oven adjusted to the temperature of 100° C. and analyzed at various times by X-ray powder diffractometry.
The physicochemical stability of the solid solution of Example 2 is determined at 100° C. without a controlled atmosphere, for 28 days. Several samples are placed in an oven adjusted to the temperature of 100° C., and are analyzed at various times by powder X-ray diffractometry.

Data set [3] in a line: water-solubility at pH 6.5. The data set is classed as physicochemical. The procedure:
(§1) These compounds are molecules which are relatively water-insoluble; their water-solubilities are respectively 0.1 μg/ml and 1 μg/l at pH=6.5. Furthermore, these compounds have high membrane permeability coefficients: respectively 78×10^−7 cm/s and 96×10^−7 cm/s on the Caco-2 cell model, as described by M. G. Gres et al., in Pharmaceutical Research, 1998, 15(5), 726-733.

The nature of data set [4]: membrane permeability on the Caco-2 cell model. Type of data set: in vitro ADME. The note with it: human; Caco-2 cell model (Gres et al.); read-out: membrane permeability coefficient. Here is the method:
as §1

Values after ≈ are worked out from the molar mass of the structure shown.

What is called solubility is the dissolved amount per volume that the medium holds. Lower therefore signals a poorly soluble substance.

As for `Cc1c(C(=O)NN2CCCCC2)nn(-c2ccc(Cl)cc2Cl)c1-c1ccc(Cl)cc1` [amorphous rimonabant, N-Piperidino-5-(4-chlorophenyl)-1-(2,4-dichlorophenyl)-4-methylpyrazole-3-carboxamide], the “rate of intrinsic dissolution” value in data set [1] was determined as 1.3 mg.min^−1.cm^−2. `CCc1c(C(=O)NN2CCCCC2)nn(-c2ccc(Cl)cc2Cl)c1-c1ccc(Br)cc1` [amorphous surinabant, N-piperidino-5-(4-bromophenyl)-1-(2,4-dichlorophenyl)-4-ethylpyrazole-3-carboxamide]: the “time in which it becomes completely crystalline” value in data set [2] is listed as at most 24 h. In data set [1], the “rate of intrinsic dissolution” value was found to be 0.85 mg.min^−1.cm^−2. Consider `Cc1c(C(=O)NN2CCCCC2)nn(-c2ccc(Cl)cc2Cl)c1-c1ccc(Cl)cc1` [crystalline rimonabant, N-Piperidino-5-(4-chlorophenyl)-1-(2,4-dichlorophenyl)-4-methylpyrazole-3-carboxamide], for which, in data set [1], the “rate of intrinsic dissolution” value is reported as 0.7 mg.min^−1.cm^−2.

`CCc1c(C(=O)NN2CCCCC2)nn(-c2ccc(Cl)cc2Cl)c1-c1ccc(Br)cc1` [crystalline surinabant, N-piperidino-5-(4-bromophenyl)-1-(2,4-dichlorophenyl)-4-ethylpyrazole-3-carboxamide]: the “rate of intrinsic dissolution” value in data set [1] came to 0.2 mg.min^−1.cm^−2. Turning to `Cc1c(C(=O)NN2CCCCC2)nn(-c2ccc(Cl)cc2Cl)c1-c1ccc(Cl)cc1` [rimonabant, N-Piperidino-5-(4-chlorophenyl)-1-(2,4-dichlorophenyl)-4-methylpyrazole-3-carboxamide], the concentration in solution in data set [3] (solubility) came to 0.1 µg/mL (≈ 0.216 µM). The Papp in data set [4] worked out at 7.8 ×10⁻⁶ cm/s. On to `CCc1c(C(=O)NN2CCCCC2)nn(-c2ccc(Cl)cc2Cl)c1-c1ccc(Br)cc1` [surinabant, N-piperidino-5-(4-bromophenyl)-1-(2,4-dichlorophenyl)-4-ethylpyrazole-3-carboxamide], for which, in data set [3], the concentration in solution (solubility) was 1 µg/mL (≈ 1.91 µM). In addition, the Papp in data set [4] came out at 9.6 ×10⁻⁶ cm/s.
